Data from ChEMBL document CHEMBL1134559 (J Med Chem, 2001).

Experiments:
[1] = molecular target: T1, Delta-type opioid receptor (Rattus norvegicus, UniProt P33533); test: Binding affinity to delta-opioid receptor of rat brain using [3H]DADLE as radioligand
[2] = molecular target: T2, Kappa-type opioid receptor (Cavia porcellus, UniProt P41144); test: Binding affinity to opioid receptor kappa 1 of guinea pig brain, using [3H]U-69593 as radioligand
Mu-type opioid receptor [3] = molecular target: T3, Mu-type opioid receptor (Rattus norvegicus, UniProt P33535); test: Binding affinity to mu-opioid receptor of rat brain using [3H]DAMGO as radioligand
T3 sequence (P33535 whole entry): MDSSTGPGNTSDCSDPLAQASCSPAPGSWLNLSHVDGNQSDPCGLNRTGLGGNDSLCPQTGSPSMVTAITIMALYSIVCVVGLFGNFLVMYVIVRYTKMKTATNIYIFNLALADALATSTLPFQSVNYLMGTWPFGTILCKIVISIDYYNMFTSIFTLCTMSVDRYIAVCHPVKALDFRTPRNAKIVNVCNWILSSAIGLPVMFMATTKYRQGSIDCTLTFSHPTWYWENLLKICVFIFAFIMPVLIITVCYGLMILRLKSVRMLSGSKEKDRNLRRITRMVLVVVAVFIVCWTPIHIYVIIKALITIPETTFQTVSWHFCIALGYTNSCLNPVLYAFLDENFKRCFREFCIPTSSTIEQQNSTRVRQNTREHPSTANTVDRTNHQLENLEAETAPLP

[4] = Inhibition of stimulation of [35S]GTP-gamma-S, binding produced by the selective agonist (SNC-80, delta-receptor), in guinea pig caudate membranes
[5] = molecular target: T2, Kappa-type opioid receptor; test: Inhibition of stimulation of [35S]GTP-gamma-S, binding produced by the selective agonist (U69593, kappa-receptor), in guinea pig caudate membranes.
Mu-type opioid receptor [6] = molecular target: T3, Mu-type opioid receptor; test: Binding affinity to mu-opioid receptor of rat brain using [3H]DAMGO as radioligand.
Mu-type opioid receptor [7] = molecular target: Mu-type opioid receptor (Cavia porcellus, UniProt P97266); test: Inhibition of stimulation of [35S]GTP-gamma-S, binding produced by the selective agonist (DAMGO, mu-receptor), in guinea pig caudate membranes.; type: functional, cell membranes
Sequence of Mu-type opioid receptor (Cavia porcellus, UniProt P97266) (P97266 whole entry): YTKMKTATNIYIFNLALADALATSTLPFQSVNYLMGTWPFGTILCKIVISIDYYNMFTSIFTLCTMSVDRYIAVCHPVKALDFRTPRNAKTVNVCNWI

[8] = molecular target: T1, Delta-type opioid receptor; test: Binding affinity to delta-opioid receptor of rat brain using [3H]DADLE as radioligand.
Mu-type opioid receptor [9] = molecular target: T3, Mu-type opioid receptor; test: Antagonist activity on agonist (DAMGO) stimulated [35S]GTP-gamma-S, binding in cloned mu opioid receptors.; type: functional

T2 sequence (P41144 whole entry): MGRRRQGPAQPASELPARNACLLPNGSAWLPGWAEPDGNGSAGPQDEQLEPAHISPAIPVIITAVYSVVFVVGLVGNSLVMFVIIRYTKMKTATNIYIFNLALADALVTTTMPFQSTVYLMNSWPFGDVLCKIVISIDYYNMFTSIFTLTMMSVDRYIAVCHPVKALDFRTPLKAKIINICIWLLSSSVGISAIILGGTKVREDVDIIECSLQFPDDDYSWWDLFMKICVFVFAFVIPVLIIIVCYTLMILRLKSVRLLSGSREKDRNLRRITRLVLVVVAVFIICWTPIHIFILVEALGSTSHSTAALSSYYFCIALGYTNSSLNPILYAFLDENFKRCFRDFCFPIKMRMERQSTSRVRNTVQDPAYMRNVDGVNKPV
T1 sequence (P33533 whole entry): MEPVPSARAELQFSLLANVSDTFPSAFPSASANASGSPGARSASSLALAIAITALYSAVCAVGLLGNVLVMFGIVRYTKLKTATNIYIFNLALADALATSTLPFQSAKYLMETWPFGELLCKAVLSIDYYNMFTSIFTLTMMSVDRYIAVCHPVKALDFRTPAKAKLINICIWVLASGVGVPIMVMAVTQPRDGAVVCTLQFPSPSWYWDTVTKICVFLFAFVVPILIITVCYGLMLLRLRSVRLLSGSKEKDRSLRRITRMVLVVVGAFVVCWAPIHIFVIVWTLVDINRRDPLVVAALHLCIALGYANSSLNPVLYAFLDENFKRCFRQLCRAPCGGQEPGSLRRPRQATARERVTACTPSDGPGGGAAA

Compound | Ki [1] | Ki [2] | Ki (Mu-type opioid receptor [3]) | Ki [4] | Ki [5] | Ki (Mu-type opioid receptor [6]) | Ki (Mu-type opioid receptor [7]) | Ki [8] | Ki (Mu-type opioid receptor [9])
CC(C)[C@@H](CN1CC[C@@](C)(c2cccc(O)c2)[C@@H](C)C1)NC(=O)CCc1ccc(O)cc1 | > 3400 nM | 3.84 nM | 171 nM | 450 nM | – | – | – | – | –
CC(C)[C@@H](CN1CC[C@@](C)(c2cccc(O)c2)[C@@H](C)C1)NC(=O)C1Cc2ccc(O)cc2CN1 (stereo partly specified) | – | – | – | – | 0.02 nM | 3.73 nM | 2.16 nM | 301 nM | 3.42 nM
Oc1ccc2c3c1O[C@H]1c4[nH]c5c(c4C[C@@]4(O)[C@@H](C2)N(CC2CC2)CC[C@]314)C[C@@]1(O)[C@H]2Cc3ccc(O)c4c3[C@@]1(CCN2CC1CC1)[C@H]5O4 [NORBINALTORPHIMINE] | 86 nM | 109 nM | – | – | – | – | – | – | –
